According to ChEMBL document CHEMBL1124170, “N2-phenyldeoxyguanosine: a novel selective inhibitor of herpes simplex thymidine kinase” (J Med Chem, 1988):

Experiments:
[1] = molecular target: T1, Thymidine kinase (Human herpesvirus 1 (strain SC16) (HHV-1) (Human herpes simplex virus1), UniProt P06479); assay: Inhibitory activity against Herpes simplex virus type-I specific thymidine kinase; set-up: species or system Human alphaherpesvirus 1 strain SC16
T1 sequence (P06479 whole entry): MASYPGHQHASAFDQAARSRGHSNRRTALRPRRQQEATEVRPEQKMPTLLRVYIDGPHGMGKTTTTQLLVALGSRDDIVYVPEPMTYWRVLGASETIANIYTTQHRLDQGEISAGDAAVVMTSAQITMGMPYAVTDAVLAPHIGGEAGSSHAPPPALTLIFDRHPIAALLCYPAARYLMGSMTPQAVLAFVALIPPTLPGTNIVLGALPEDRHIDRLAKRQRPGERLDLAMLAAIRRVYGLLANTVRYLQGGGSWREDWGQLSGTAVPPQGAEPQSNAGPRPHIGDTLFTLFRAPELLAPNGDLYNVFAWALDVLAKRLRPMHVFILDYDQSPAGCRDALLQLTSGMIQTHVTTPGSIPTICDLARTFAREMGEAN

[2] = test system: Thymidine kinase (Human alphaherpesvirus 1); assay: Inhibitory activity against Herpes simplex virus type-I specific thymidine kinase; No inhibition detected at 1 mM concentration

Which EC50 [1] does the source give for `Cc1ccc(Nc2nc3nc[nH]c3c(=O)[nH]2)cc1` here?
Its EC50 is 50 µM.

Which EC50 [1] does the source give for `CCCCc1ccc(Nc2nc3c(ncn3[C@H]3O[C@@H](CO)[C@H](O)[C@@H]3O)c(=O)[nH]2)cc1` here?
Its EC50 is 75 µM.

How did the EC50 [1] turn out when `CCCCc1ccc(NC2=NC(=O)C3N=CN([C@H]4C[C@H](O)[C@@H](COP(=O)(O)O)O4)C3=N2)cc1` (stereo not given in full) was run?
Its EC50 is 400 µM.

Which EC50 [1] does the source give for `CCCCc1ccc(Nc2nc3c(ncn3COCCO)c(=O)[nH]2)cc1` here?
The EC50 was 140 µM.

Which EC50 [1] does the source give for `O=C1N=C(Nc2ccccc2)N=C2C1N=CN2[C@H]1C[C@H](O)[C@@H](COP(=O)(O)O)O1` (stereo not given in full) here?
Its EC50 is 3 µM.

For `CCCCc1ccc(Nc2nc3c(ncn3[C@H]3C[C@H](O)[C@@H](CO)O3)c(=O)[nH]2)cc1`, which EC50 [1] is on record?
The EC50 was 25 µM.

With `CCCCc1ccc(Nc2nc3nc[nH]c3c(=O)[nH]2)cc1` as the molecule, how does the EC50 [1] read?
The EC50 was 50 µM.

How did the EC50 [1] turn out when `CCc1cccc(Nc2nc3nc[nH]c3c(=O)[nH]2)c1` was run?
The EC50 was 3 µM.

`CCCCc1ccc(Nc2nc(N)c3ncn([C@H]4C[C@H](O)[C@@H](CO)O4)c3n2)cc1` was tested. Which EC50 [2] did it give?
Its EC50 is “Not Active”.

Which EC50 [1] does the source give for `Cc1ccc(Nc2nc3c(ncn3C3O[C@@H](CO)[C@H](O)[C@@H]3O)c(=O)[nH]2)cc1` (stereo not given in full) here?
Its EC50 is 30 µM.
